Source: patent publication US9682141B2, “Combination of kinase inhibitors and uses thereof” (INTELLIKINE LLC, priority 2011, dated 2017)

Experiments:
Type in all cases: biochemical
PI3K β = PI3K β (Homo sapiens (Human), UniProt P42338); assay: PI 3-Kinase (human) HTRF assay, p110β/p85α
PI3K γ = PI3K γ (Homo sapiens (Human), UniProt P48736); assay: PI 3-Kinase (human) HTRF assay, p110γ; details: read-out: PI3K γ IC50
PI3K δ = PI3K δ (Homo sapiens (Human), UniProt O00329); assay: PI 3-Kinase (human) HTRF assay, p110δ/p85α
PI3K α = PI3K α (Homo sapiens (Human), UniProt P42336); assay: PI 3-Kinase (human) HTRF assay, p110α/p85α
Sequence of PI3K α (P42336 whole entry): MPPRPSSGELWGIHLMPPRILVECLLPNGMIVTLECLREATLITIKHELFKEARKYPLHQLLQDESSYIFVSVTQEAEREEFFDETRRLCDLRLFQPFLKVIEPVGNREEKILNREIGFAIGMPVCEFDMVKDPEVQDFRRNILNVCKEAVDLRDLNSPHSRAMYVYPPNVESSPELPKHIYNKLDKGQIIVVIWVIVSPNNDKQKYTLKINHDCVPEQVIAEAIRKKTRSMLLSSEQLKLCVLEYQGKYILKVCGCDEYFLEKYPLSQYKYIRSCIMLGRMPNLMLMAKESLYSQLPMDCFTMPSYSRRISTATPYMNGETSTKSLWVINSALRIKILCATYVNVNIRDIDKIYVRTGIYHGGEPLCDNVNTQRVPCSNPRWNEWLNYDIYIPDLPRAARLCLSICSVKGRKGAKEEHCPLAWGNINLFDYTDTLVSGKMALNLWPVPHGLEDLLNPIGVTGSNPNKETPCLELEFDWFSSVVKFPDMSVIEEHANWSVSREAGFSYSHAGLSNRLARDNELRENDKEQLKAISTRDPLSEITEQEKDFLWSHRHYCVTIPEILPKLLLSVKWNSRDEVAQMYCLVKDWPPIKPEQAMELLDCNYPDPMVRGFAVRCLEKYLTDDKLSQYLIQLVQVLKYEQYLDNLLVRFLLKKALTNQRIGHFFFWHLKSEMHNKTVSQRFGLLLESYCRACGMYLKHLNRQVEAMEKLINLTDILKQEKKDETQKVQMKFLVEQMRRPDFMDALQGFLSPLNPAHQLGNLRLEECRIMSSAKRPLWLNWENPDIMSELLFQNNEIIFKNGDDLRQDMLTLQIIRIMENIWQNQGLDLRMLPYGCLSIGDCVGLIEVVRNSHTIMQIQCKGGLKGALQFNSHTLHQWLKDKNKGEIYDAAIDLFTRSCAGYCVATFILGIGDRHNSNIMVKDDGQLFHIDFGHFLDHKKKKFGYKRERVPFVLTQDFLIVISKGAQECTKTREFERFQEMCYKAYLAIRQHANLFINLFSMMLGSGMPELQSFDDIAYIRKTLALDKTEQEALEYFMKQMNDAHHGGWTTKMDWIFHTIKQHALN
Sequence of PI3K α (P27986 whole entry partner): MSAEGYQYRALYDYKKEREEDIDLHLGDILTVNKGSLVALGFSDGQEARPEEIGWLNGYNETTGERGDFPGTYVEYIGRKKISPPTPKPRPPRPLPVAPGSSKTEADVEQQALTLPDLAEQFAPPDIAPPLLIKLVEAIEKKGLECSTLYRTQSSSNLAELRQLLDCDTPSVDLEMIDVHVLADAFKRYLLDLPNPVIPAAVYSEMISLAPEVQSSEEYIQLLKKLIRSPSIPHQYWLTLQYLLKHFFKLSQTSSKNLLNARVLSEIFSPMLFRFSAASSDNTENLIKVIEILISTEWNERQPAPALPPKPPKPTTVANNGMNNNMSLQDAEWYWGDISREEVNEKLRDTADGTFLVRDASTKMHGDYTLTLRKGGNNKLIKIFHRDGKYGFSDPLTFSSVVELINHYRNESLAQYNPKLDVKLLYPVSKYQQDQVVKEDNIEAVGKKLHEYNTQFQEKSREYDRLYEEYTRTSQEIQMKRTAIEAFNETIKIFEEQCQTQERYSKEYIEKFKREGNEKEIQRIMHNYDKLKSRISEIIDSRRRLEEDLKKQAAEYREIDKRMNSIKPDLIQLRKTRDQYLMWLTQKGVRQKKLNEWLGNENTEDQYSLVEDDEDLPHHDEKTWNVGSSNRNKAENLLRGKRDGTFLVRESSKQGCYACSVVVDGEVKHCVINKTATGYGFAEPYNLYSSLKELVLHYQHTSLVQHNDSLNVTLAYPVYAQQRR

Sequence of PI3K δ (O00329 whole entry): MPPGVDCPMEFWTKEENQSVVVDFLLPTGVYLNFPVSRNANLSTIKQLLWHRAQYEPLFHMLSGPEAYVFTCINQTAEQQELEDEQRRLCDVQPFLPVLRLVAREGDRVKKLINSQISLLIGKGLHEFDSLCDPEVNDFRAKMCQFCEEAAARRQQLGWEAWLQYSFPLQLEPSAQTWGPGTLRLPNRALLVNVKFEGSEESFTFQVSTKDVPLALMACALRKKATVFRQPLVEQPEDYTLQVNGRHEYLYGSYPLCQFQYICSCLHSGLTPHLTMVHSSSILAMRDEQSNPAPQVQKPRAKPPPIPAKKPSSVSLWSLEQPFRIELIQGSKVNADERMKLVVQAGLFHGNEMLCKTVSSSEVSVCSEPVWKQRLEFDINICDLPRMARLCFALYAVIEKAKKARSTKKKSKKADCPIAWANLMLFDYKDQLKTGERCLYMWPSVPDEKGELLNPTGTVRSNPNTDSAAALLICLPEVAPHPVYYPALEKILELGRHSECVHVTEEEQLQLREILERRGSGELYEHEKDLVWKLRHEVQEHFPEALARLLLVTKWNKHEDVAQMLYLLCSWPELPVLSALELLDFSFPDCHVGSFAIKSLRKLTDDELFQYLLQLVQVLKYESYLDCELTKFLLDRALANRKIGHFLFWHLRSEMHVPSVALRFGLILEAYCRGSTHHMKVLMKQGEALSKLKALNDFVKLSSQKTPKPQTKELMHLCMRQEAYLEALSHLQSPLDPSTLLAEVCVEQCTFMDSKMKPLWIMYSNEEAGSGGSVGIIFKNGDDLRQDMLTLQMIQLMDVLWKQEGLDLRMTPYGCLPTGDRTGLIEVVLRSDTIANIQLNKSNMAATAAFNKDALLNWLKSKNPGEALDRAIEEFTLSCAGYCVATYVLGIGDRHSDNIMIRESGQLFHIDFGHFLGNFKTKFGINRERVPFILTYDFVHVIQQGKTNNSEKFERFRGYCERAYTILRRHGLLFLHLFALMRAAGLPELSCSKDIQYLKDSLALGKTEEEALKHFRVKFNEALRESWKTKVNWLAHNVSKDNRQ
Sequence of PI3K δ (P27986 whole entry partner): as the sequence (P27986 whole entry partner) above
Sequence of PI3K β (P42338 whole entry): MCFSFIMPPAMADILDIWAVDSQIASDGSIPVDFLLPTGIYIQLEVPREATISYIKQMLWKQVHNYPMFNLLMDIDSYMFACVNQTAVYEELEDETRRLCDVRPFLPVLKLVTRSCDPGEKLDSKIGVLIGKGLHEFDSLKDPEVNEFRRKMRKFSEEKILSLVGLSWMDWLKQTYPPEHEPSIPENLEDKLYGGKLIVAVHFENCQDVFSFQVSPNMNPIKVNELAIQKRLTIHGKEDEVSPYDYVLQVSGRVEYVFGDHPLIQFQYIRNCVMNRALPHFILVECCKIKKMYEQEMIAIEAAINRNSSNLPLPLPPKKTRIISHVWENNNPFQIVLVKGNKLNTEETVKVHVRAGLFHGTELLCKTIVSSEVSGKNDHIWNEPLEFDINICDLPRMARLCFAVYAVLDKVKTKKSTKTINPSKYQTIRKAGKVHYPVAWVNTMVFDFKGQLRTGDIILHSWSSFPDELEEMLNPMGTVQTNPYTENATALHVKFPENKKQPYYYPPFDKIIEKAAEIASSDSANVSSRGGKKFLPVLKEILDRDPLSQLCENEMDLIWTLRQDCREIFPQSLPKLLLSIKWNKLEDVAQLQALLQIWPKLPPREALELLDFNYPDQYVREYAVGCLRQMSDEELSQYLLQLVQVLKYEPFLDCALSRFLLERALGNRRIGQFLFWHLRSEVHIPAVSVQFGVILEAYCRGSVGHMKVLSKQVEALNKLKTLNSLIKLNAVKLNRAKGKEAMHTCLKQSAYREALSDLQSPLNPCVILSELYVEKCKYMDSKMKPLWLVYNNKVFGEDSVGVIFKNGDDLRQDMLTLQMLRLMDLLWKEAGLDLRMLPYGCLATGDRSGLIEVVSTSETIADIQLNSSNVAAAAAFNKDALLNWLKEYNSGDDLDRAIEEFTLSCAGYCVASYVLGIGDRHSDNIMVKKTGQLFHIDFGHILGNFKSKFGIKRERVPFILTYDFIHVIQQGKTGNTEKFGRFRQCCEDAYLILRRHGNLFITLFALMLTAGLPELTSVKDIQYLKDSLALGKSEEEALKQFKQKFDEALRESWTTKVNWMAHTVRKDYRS
Sequence of PI3K β (P27986 whole entry partner): as the sequence (P27986 whole entry partner) above
Sequence of PI3K γ (P48736 whole entry): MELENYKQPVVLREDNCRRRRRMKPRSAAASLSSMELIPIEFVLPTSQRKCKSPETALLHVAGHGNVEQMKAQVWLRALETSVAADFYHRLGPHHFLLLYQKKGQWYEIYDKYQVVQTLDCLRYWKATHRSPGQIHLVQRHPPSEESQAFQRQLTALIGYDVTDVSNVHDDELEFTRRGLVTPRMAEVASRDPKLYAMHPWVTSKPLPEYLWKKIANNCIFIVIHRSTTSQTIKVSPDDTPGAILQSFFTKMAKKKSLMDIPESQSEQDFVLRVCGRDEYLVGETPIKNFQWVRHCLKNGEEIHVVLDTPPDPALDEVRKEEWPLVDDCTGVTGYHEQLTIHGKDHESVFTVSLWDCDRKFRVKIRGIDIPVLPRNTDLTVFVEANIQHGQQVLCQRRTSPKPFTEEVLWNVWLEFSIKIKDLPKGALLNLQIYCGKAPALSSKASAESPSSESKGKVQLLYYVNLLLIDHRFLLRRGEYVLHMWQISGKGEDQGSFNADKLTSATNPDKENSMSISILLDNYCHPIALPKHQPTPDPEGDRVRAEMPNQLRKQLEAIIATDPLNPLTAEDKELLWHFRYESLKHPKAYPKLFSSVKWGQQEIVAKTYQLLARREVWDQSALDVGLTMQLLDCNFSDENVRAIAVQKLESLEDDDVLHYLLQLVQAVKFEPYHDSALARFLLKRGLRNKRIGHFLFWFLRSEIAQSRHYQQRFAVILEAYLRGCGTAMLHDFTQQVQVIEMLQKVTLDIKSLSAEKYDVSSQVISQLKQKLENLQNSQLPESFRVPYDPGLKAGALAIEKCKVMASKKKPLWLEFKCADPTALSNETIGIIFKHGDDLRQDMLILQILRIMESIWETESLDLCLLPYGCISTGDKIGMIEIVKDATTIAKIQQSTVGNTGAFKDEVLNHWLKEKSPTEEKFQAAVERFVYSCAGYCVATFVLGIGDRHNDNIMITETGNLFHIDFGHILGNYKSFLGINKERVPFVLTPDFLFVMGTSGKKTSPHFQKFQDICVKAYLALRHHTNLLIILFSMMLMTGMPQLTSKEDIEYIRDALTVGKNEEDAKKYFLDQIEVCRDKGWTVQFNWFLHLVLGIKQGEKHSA

IC50 (PI3K β) [µM] | IC50 (PI3K γ) [µM] | IC50 (PI3K δ) [µM] | IC50 (PI3K α) [µM] | SMILES
< 10 | > 10 | < 10 | < 1 | CN1CCC(N(C)C(=O)c2cnc3ccc(-c4ccc5oc(N)nc5c4)cn23)CC1
< 1 | < 10 | < 10 | < 0.1 | C[C@@H]1CN(c2cnc3ccc(-c4ccc5oc(N)nc5c4)cc3n2)CCN1
< 10 | < 0.1 | < 0.1 | < 0.1 | CC(=O)N1CCC(Nc2cnc3ccc(-c4ccc5oc(N)nc5c4)cc3n2)CC1
< 1 | > 10 | < 10 | < 0.1 | CNC(=O)CN1CCN(c2cnc3ccc(-c4ccc5oc(N)nc5c4)cc3n2)CC1
< 1 | < 10 | > 10 | < 1 | Nc1nc2cc(-c3ccc4ncc(N5CCOCC5)n4n3)ccc2o1
> 10 | > 10 | > 10 | < 1 | Nc1nc2cc(-c3ccc4ncc(N5CC(N6CCNCC6)C5)nc4n3)ccc2o1
< 10 | > 10 | > 10 | < 0.1 | Nc1nc2cc(-c3ccc4ncc(C(=O)N5CCNCC5)n4c3)ccc2o1
> 10 | < 10 | > 10 | < 1 | CC1CN(C2CN(c3cnc4ccc(-c5ccc6oc(N)nc6c5)nc4n3)C2)CCO1 (stereo not drawn)
> 10 | < 1 | < 10 | < 1 | CCN(CC)c1cnc2ccc(-c3ccc4oc(N)nc4c3)nc2n1
< 1 | < 10 | < 1 | < 0.1 | CC(N)C(=O)N1CCN(c2cnc3ccc(-c4ccc5oc(N)nc5c4)cc3n2)CC1 (stereo not drawn)
< 10 | > 10 | > 10 | < 1 | CN1CCCN(C(=O)c2cnc3ccc(-c4ccc5oc(N)nc5c4)cn23)CC1
< 0.1 | < 1 | < 0.1 | < 0.1 | CN(C)C1CCN(c2cnc3ccc(-c4ccc5oc(N)nc5c4)cc3n2)CC1
< 1 | < 0.1 | < 1 | < 0.1 | Nc1nc2cc(-c3ccc4ncc(-c5cn[nH]c5)nc4c3)ccc2o1
< 1 | < 0.1 | < 10 | < 0.1 | CNC(=O)N1CCN(c2cnc3ccc(-c4ccc5oc(N)nc5c4)cc3n2)CC1
< 1 | < 1 | < 10 | < 0.1 | CC(C)N1CCN(c2cnc3ccc(-c4ccc5oc(N)nc5c4)nc3n2)CC1
> 10 | < 1 | > 10 | < 0.1 | CC(=O)N1CCN(C(=O)c2cnc3ccc(-c4ccc5oc(N)nc5c4)cn23)CC1
< 1 | < 1 | < 1 | < 0.1 | CCOC(=O)N1CCN(c2cnc3ccc(-c4ccc5oc(N)nc5c4)nc3n2)CC1
> 10 | < 0.1 | > 10 | < 0.1 | Nc1nc2cc(-c3ccc4ncc(N5CCC(F)(F)CC5)nc4n3)ccc2o1
> 10 | > 10 | > 10 | > 10 | Nc1nsc2ccc(-c3ccc4nccc(-c5ccncc5)c4c3)cc12 [Compound 12]
< 10 | > 10 | > 10 | < 1 | CN1CCN(C(=O)c2cnc3ccc(-c4ccc5sc(N)nc5c4)cn23)CC1
> 10 | < 10 | > 10 | < 10 | CN1CCN(C(=O)c2cnc3ccc(-c4ccc5oc(N)nc5c4)nn23)CC1
> 10 | > 10 | > 10 | > 10 | Nc1nc2cc(-c3cnc4ncc(-c5ccncc5)n4c3)ccc2o1
< 1 | < 0.1 | < 1 | < 0.1 | CCNC(=O)c1cnc2ccc(-c3ccc4oc(N)nc4c3)cn12
< 1 | > 10 | < 10 | < 0.1 | Nc1nc2cc(-c3ccc4ncc(N5CCC(N)CC5)nc4c3)ccc2o1
